This assay has as its system MV-4-11 cells. The assay can be described thus: Gene expression microarray analysis (Affymetrix PrimeView) and GSEA. The conditions noted are these: MV-4-11 cells, 48 hours. It is filed as cell-based, human. Set-up: RFU PODN (11730768_x_at) / Fold change /veh PODN (11730768_x_at) / RFU LINC00158 (11744669_a_at) / Fold change /veh LINC00158 (11744669_a_at) / RFU DUSP10 (11751237_a_at) / Fold change /veh DUSP10 (11751237_a_at) / RFU ID3 (11757404_x_at) / Fold change /veh ID3 (11757404_x_at) / RFU PLEKHG5 (11737974_s_at) / Fold change /veh PLEKHG5 (11737974_s_at) / RFU LRRC4B (11730491_at) / Fold change /veh LRRC4B (11730491_at) / RFU GIMAP4 (11747438_a_at) / Fold change /veh GIMAP4 (11747438_a_at) / RFU KRT8 (11758183_x_at) / Fold change /veh KRT8 (11758183_x_at) / RFU CNN1 (11734310_a_at) / Fold change /veh CNN1 (11734310_a_at) / RFU VPS37D (11726825_at) / Fold change /veh VPS37D (11726825_at) / RFU C10orf10 (11716522_x_at) / Fold change /veh C10orf10 (11716522_x_at) / RFU KIR2DL2 /// KIR2DL4 /// KIR2DL5A /// KIR2DL5B /// KIR2DS1 /// KIR2DS2 /// KIR2DS3 /// KIR2DS4 /// KIR3DL3 /// KIR3DL3 /// KIR3DS1 (11738374_at) / Fold change /veh KIR2DL2 /// KIR2DL4 /// KIR2DL5A /// KIR2DL5B /// KIR2DS1 /// KIR2DS2 /// KIR2DS3 /// KIR2DS4 /// KIR3DL3 /// KIR3DL3 /// KIR3DS1 (11738374_at) / RFU C1QL1 (11718748_at) / Fold change /veh C1QL1 (11718748_at) / RFU TMPRSS4 (11747572_a_at) / Fold change /veh TMPRSS4 (11747572_a_at) / RFU HAMP (11756126_x_at) / Fold change /veh HAMP (11756126_x_at) / RFU RNFT2 (11725882_a_at) / Fold change /veh RNFT2 (11725882_a_at) / RFU NR4A2 (11747474_a_at) / Fold change /veh NR4A2 (11747474_a_at) / RFU ABCC12 (11746883_a_at) / Fold change /veh ABCC12 (11746883_a_at) / RFU TMEM136 (11760407_x_at) / Fold change /veh TMEM136 (11760407_x_at) / RFU CLDN22 /// WWC2 (11732394_at) / Fold change /veh CLDN22 /// WWC2 (11732394_at) / RFU HLA-DPB1 (11760878_x_at) / Fold change /veh HLA-DPB1 (11760878_x_at) / RFU SPINT1 (11716480_a_at) / Fold change /veh SPINT1 (11716480_a_at) / RFU GAP43 (11754022_s_at) / Fold change /veh GAP43 (11754022_s_at) / RFU A4GNT (11735810_at) / Fold change /veh A4GNT (11735810_at) / RFU PRB3 (11715151_x_at) / Fold change /veh PRB3 (11715151_x_at) / RFU TUBB4B (11761932_at) / Fold change /veh TUBB4B (11761932_at) / RFU CAPN14 (11732068_a_at) / Fold change /veh CAPN14 (11732068_a_at) / RFU TMCC2 (11721928_a_at) / Fold change /veh TMCC2 (11721928_a_at) / RFU IRGQ (11745062_a_at) / Fold change /veh IRGQ (11745062_a_at) / RFU FAM174B (11720279_a_at) / Fold change /veh FAM174B (11720279_a_at) / RFU TMPRSS4 (11748680_a_at) / Fold change /veh TMPRSS4 (11748680_a_at) / RFU FAM212B (11763350_a_at) / Fold change /veh FAM212B (11763350_a_at) / RFU PLEKHG5 (11743358_a_at) / Fold change /veh PLEKHG5 (11743358_a_at) / RFU ZSCAN30 (11745921_a_at) / Fold change /veh ZSCAN30 (11745921_a_at) / RFU CMKLR1 (11741424_a_at) / Fold change /veh CMKLR1 (11741424_a_at) / RFU LOC101060620 /// MAPK8IP1 (11723275_at) / Fold change /veh LOC101060620 /// MAPK8IP1 (11723275_at) / RFU SPTSSB (11747773_x_at) / Fold change /veh SPTSSB (11747773_x_at) / RFU PRSS12 (11739890_at) / Fold change /veh PRSS12 (11739890_at) / RFU BIN1 (11741810_x_at) / Fold change /veh BIN1 (11741810_x_at) / RFU WNT11 (11732464_a_at) / Fold change /veh WNT11 (11732464_a_at) / RFU C10orf10 (11716521_a_at) / Fold change /veh C10orf10 (11716521_a_at) / RFU C5orf56 (11738089_at) / Fold change /veh C5orf56 (11738089_at) / RFU CYB561 (11721691_x_at) / Fold change /veh CYB561 (11721691_x_at) / RFU ANKRD19P (11752326_a_at) / Fold change /veh ANKRD19P (11752326_a_at) / RFU OR2T12 /// OR2T33 /// OR2T8 (11738714_s_at) / Fold change /veh OR2T12 /// OR2T33 /// OR2T8 (11738714_s_at) / RFU VCAN (11748164_a_at) / Fold change /veh VCAN (11748164_a_at) / RFU JSRP1 (11732532_at) / Fold change /veh JSRP1 (11732532_at) / RFU KRTAP10-11 (11738290_x_at) / Fold change /veh KRTAP10-11 (11738290_x_at) / RFU MYO3A (11730013_a_at) / Fold change /veh MYO3A (11730013_a_at) / RFU EBF3 (11725865_a_at) / Fold change /veh EBF3 (11725865_a_at) / RFU CAMK2N1 (11719241_x_at) / Fold change /veh CAMK2N1 (11719241_x_at) / RFU C5orf56 (11738088_a_at) / Fold change /veh C5orf56 (11738088_a_at) / RFU OLFML3 (11715873_a_at) / Fold change /veh OLFML3 (11715873_a_at) / RFU LOC100653217 /// NTM (11731650_a_at) / Fold change /veh LOC100653217 /// NTM (11731650_a_at) / RFU MAPK11 (11762145_a_at) / Fold change /veh MAPK11 (11762145_a_at) / RFU FIZ1 (11724087_x_at) / Fold change /veh FIZ1 (11724087_x_at) / RFU OASL (11726364_x_at) / Fold change /veh OASL (11726364_x_at) / RFU SOX15 (11748057_x_at) / Fold change /veh SOX15 (11748057_x_at) / RFU CD79A (11719716_a_at) / Fold change /veh CD79A (11719716_a_at) / RFU HIST1H1D (11736915_at) / Fold change /veh HIST1H1D (11736915_at) / RFU CASKIN2 (11723855_a_at) / Fold change /veh CASKIN2 (11723855_a_at) / RFU LOC730098 (11760151_x_at) / Fold change /veh LOC730098 (11760151_x_at) / RFU OR4N2 (11742367_at) / Fold change /veh OR4N2 (11742367_at) / RFU PRRT2 (11749266_a_at) / Fold change /veh PRRT2 (11749266_a_at) / RFU SNX32 (11753110_a_at) / Fold change /veh SNX32 (11753110_a_at) / RFU CDHR5 (11726645_a_at) / Fold change /veh CDHR5 (11726645_a_at) / RFU RCAN1 (11760418_a_at) / Fold change /veh RCAN1 (11760418_a_at) / RFU FAM167A (11723789_a_at) / Fold change /veh FAM167A (11723789_a_at) / RFU FAM26E (11764081_at) / Fold change /veh FAM26E (11764081_at) / RFU ISYNA1 (11749810_s_at) / Fold change /veh ISYNA1 (11749810_s_at) / RFU ACY1 (11761880_at) / Fold change /veh ACY1 (11761880_at) / RFU 11764098_at / Fold change /veh 11764098_at / RFU SAMD14 (11745864_x_at) / Fold change /veh SAMD14 (11745864_x_at) / RFU NPB (11741838_a_at) / Fold change /veh NPB (11741838_a_at) / RFU TMPRSS6 (11731388_a_at) / Fold change /veh TMPRSS6 (11731388_a_at) / RFU KRTAP10-2 (11738614_at) / Fold change /veh KRTAP10-2 (11738614_at) / RFU ARHGAP8 /// PRR5-ARHGAP8 (11727945_x_at) / Fold change /veh ARHGAP8 /// PRR5-ARHGAP8 (11727945_x_at) / RFU KRTAP5-7 /// NADSYN1 (11734609_at) / Fold change /veh KRTAP5-7 /// NADSYN1 (11734609_at) / RFU RASL12 (11751679_a_at) / Fold change /veh RASL12 (11751679_a_at) / RFU CDKN2B (11736163_a_at) / Fold change /veh CDKN2B (11736163_a_at) / RFU PRF1 (11729649_at) / Fold change /veh PRF1 (11729649_at) / RFU, ZNF638 /// ZNF638-IT1 / Fold change vs veh, ZNF638 /// ZNF638-IT1 / RFU, PANK3 / Fold change vs veh, PANK3 / RFU, SH3YL1 / Fold change vs veh, SH3YL1 / RFU, ZEB2 / Fold change vs veh, ZEB2 / RFU, NRIP1 / Fold change vs veh, NRIP1 / RFU, PTTG1IP / Fold change vs veh, PTTG1IP / RFU, CAPN2 / Fold change vs veh, CAPN2 / RFU, MED14 / Fold change vs veh, MED14 / RFU, SNORA58 / Fold change vs veh, SNORA58 / RFU, C1orf63 / Fold change vs veh, C1orf63 / RFU, LRRFIP1 / Fold change vs veh, LRRFIP1 / RFU, NDUFAF7 / Fold change vs veh, NDUFAF7 / RFU, SLC12A2 / Fold change vs veh, SLC12A2 / RFU, IBTK / Fold change vs veh, IBTK / RFU, ESF1 / Fold change vs veh, ESF1 / Fold change vs veh, TMEM50B / RFU, TAOK1 / Fold change vs veh, TAOK1 / RFU, ACBD3 / Fold change vs veh, ACBD3 / RFU, TMA16 / Fold change vs veh, TMA16 / RFU, RWDD3 / Fold change vs veh, RWDD3 / RFU, BCAT1 / Fold change vs veh, BCAT1 / RFU, EDEM3 / Fold change vs veh, EDEM3 / RFU, TMEM33 / Fold change vs veh, TMEM33 / RFU, WDR75 / Fold change vs veh, WDR75 / RFU, AHCTF1 / Fold change vs veh, AHCTF1 / RFU, TFRC / Fold change vs veh, TFRC / RFU, ZDHHC17 / Fold change vs veh, ZDHHC17 / RFU, NOM1 / Fold change vs veh, NOM1 / RFU, ARL8B / Fold change vs veh, ARL8B / RFU, ZBTB11 / Fold change vs veh, ZBTB11 / RFU, TAMM41 / Fold change vs veh, TAMM41 / RFU, KIAA1704 /// LOC100996395 / Fold change vs veh, KIAA1704 /// LOC100996395 / RFU, ING1 / Fold change vs veh, ING1 / RFU, TRMT61B / Fold change vs veh, TRMT61B / RFU, FUBP3 / Fold change vs veh, FUBP3 / RFU, TP53 / Fold change vs veh, TP53 / RFU, TNKS2 / Fold change vs veh, TNKS2 / RFU, ZFP14 / Fold change vs veh, ZFP14 / RFU, ACTR2 / Fold change vs veh, ACTR2 / RFU, PPP3R1 / Fold change vs veh, PPP3R1 / RFU, PIK3R1 / Fold change vs veh, PIK3R1 / RFU, HNRNPA1 / Fold change vs veh, HNRNPA1 / RFU, RNF170 / Fold change vs veh, RNF170 / RFU, ZNF28 / Fold change vs veh, ZNF28 / RFU, RNGTT / Fold change vs veh, RNGTT / RFU, OGT / Fold change vs veh, OGT / RFU, BRD1 / Fold change vs veh, BRD1 / RFU, MARS / Fold change vs veh, MARS / RFU, ZNF655 / Fold change vs veh, ZNF655 / RFU, FAHD1 / Fold change vs veh, FAHD1 / RFU, BDP1 / Fold change vs veh, BDP1 / RFU, LRRCC1 / Fold change vs veh, LRRCC1 / RFU, ARID1A / Fold change vs veh, ARID1A / RFU, ZNF146 / Fold change vs veh, ZNF146 / RFU, ZNF330 / Fold change vs veh, ZNF330 / RFU, GPN3 / Fold change vs veh, GPN3 / RFU, C9orf123 / Fold change vs veh, C9orf123 / RFU, N4BP2L2 / Fold change vs veh, N4BP2L2 / RFU, ARFIP1 / Fold change vs veh, ARFIP1 / RFU, FAM179B / Fold change vs veh, FAM179B / RFU, BCL10 / Fold change vs veh, BCL10 / RFU, UHRF1BP1L / Fold change vs veh, UHRF1BP1L / RFU, BET1 / Fold change vs veh, BET1 / RFU, CNOT2 / Fold change vs veh, CNOT2 / RFU, ZNF268 / Fold change vs veh, ZNF268 / Fold change vs veh, ZNF507 / RFU, DGCR2 / Fold change vs veh, DGCR2 / RFU, WDSUB1 / Fold change vs veh, WDSUB1 / Fold change vs veh, HSP90B1 /// MIR3652 / RFU, ADSS / Fold change vs veh, ADSS / RFU, GK / Fold change vs veh, GK / RFU, ZNF148 / Fold change vs veh, ZNF148 / RFU, TAF9 / Fold change vs veh, TAF9 / RFU, SLC1A5 / Fold change vs veh, SLC1A5 / RFU, SLMO2 / Fold change vs veh, SLMO2 / RFU, ABCC4 / Fold change vs veh, ABCC4 / RFU, LOC101060439 /// RAP1B / Fold change vs veh, LOC101060439 /// RAP1B / RFU, RFX7 / Fold change vs veh, RFX7 / RFU, GTPBP10 / Fold change vs veh, GTPBP10 / RFU, CNEP1R1 / Fold change vs veh, CNEP1R1 / RFU, BIVM-ERCC5 /// ERCC5 / Fold change vs veh, BIVM-ERCC5 /// ERCC5 / RFU, ILF3 / Fold change vs veh, ILF3 / RFU 11762660_at / Fold change /veh 11762660_at / RFU VCAN (11757783_s_at) / Fold change /veh VCAN (11757783_s_at) / RFU DDX43 (11728927_at) / Fold change /veh DDX43 (11728927_at) / RFU KRT8 (11758188_x_at) / Fold change /veh KRT8 (11758188_x_at) / RFU NKD1 (11759106_at) / Fold change /veh NKD1 (11759106_at) / RFU SRD5A1 (11742802_a_at) / Fold change /veh SRD5A1 (11742802_a_at) / RFU TPSAB1 /// TPSB2 (11721975_s_at) / Fold change /veh TPSAB1 /// TPSB2 (11721975_s_at) / RFU GSTM3 (11746129_a_at) / Fold change /veh GSTM3 (11746129_a_at) / RFU IL23R (11737362_x_at) / Fold change /veh IL23R (11737362_x_at) / RFU TMEM51 (11727254_a_at) / Fold change /veh TMEM51 (11727254_a_at) / RFU PIWIL2 (11732686_x_at) / Fold change /veh PIWIL2 (11732686_x_at) / RFU ORM1 (11744905_x_at) / Fold change /veh ORM1 (11744905_x_at) / RFU CCDC152 (11743942_at) / Fold change /veh CCDC152 (11743942_at) / RFU ECM1 (11717891_a_at) / Fold change /veh ECM1 (11717891_a_at) / RFU IL23R (11748794_a_at) / Fold change /veh IL23R (11748794_a_at) / RFU TNFAIP8L3 (11732012_x_at) / Fold change /veh TNFAIP8L3 (11732012_x_at) / RFU MBOAT4 (11741988_at) / Fold change /veh MBOAT4 (11741988_at) / RFU 11764193_at / Fold change /veh 11764193_at / RFU TMEM53 (11763286_at) / Fold change /veh TMEM53 (11763286_at) / RFU MAGEB2 (11727129_at) / Fold change /veh MAGEB2 (11727129_at) / RFU TMEM200A (11744735_a_at) / Fold change /veh TMEM200A (11744735_a_at) / RFU CCDC152 (11751479_a_at) / Fold change /veh CCDC152 (11751479_a_at) / RFU FAM211A (11726209_a_at) / Fold change /veh FAM211A (11726209_a_at) / RFU RGS16 (11746705_a_at) / Fold change /veh RGS16 (11746705_a_at) / RFU VCAN (11755009_s_at) / Fold change /veh VCAN (11755009_s_at) / RFU RHOB (11743442_s_at) / Fold change /veh RHOB (11743442_s_at) / RFU RGS16 (11720943_a_at) / Fold change /veh RGS16 (11720943_a_at) / RFU RGS16 (11720944_at) / Fold change /veh RGS16 (11720944_at) / RFU, VPS4B / Fold change vs veh, VPS4B / RFU, CREB1 / Fold change vs veh, CREB1 / RFU, DNAJC13 / Fold change vs veh, DNAJC13 / RFU, GNAQ / Fold change vs veh, GNAQ / RFU, CDK5R1 / Fold change vs veh, CDK5R1 / RFU, ZRANB3 / Fold change vs veh, ZRANB3 / RFU, CUL4A / Fold change vs veh, CUL4A / RFU, CCNY / Fold change vs veh, CCNY / RFU, UFL1 / Fold change vs veh, UFL1 / RFU, COG3 / Fold change vs veh, COG3 / RFU, DIAPH2 / Fold change vs veh, DIAPH2 / RFU, SKA2 / Fold change vs veh, SKA2 / RFU, AFF3 / Fold change vs veh, AFF3 / RFU, LMF1 / Fold change vs veh, LMF1 / RFU, IPO11 / Fold change vs veh, IPO11 / RFU, DFFB / Fold change vs veh, DFFB / RFU, FOXP1 / Fold change vs veh, FOXP1 / RFU, CARD8 / Fold change vs veh, CARD8 / RFU, STRN3 / Fold change vs veh, STRN3 / RFU, ADK / Fold change vs veh, ADK / RFU, RASSF2 / Fold change vs veh, RASSF2 / RFU, WIPF1 / Fold change vs veh, WIPF1 / RFU, LARP1B / Fold change vs veh, LARP1B / RFU, RASA1 / Fold change vs veh, RASA1 / RFU, RB1 / Fold change vs veh, RB1 / RFU, PPFIA1 / Fold change vs veh, PPFIA1 / RFU, MAT2A / Fold change vs veh, MAT2A / RFU, CCT5 / Fold change vs veh, CCT5 / RFU, WDR92 / Fold change vs veh, WDR92 / RFU, CUX1 / Fold change vs veh, CUX1 / RFU, TTC7A / Fold change vs veh, TTC7A / RFU, TMEM135 / Fold change vs veh, TMEM135 / RFU, DEPTOR / Fold change vs veh, DEPTOR / RFU, CPM / Fold change vs veh, CPM / RFU, DNAJB6 / Fold change vs veh, DNAJB6 / RFU, CACNA2D3 / Fold change vs veh, CACNA2D3 / RFU, DTX4 / Fold change vs veh, DTX4 / RFU, TFCP2 / Fold change vs veh, TFCP2 / RFU, GMCL1 /// GMCL1P1 / Fold change vs veh, GMCL1 /// GMCL1P1 / RFU, AEBP2 / Fold change vs veh, AEBP2 / RFU, SNHG1 /// SNORD22 /// SNORD25 /// SNORD26 /// SNORD27 /// SNORD28 /// SNORD29 /// SNORD31 / Fold change vs veh, SNHG1 /// SNORD22 /// SNORD25 /// SNORD26 /// SNORD27 /// SNORD28 /// SNORD29 /// SNORD31 / Fold change (Aza/veh), C12orf56 (ProbeSet 11735607_a_at) / Fold change (ACY-1035/veh), C12orf56 (ProbeSet 11735607_a_at) / Fold change (Aza/veh), FGFR1OP (ProbeSet 11751329_s_at) / Fold change (ACY-1035/veh), FGFR1OP (ProbeSet 11751329_s_at) / Fold change (Aza/veh), VPS36 (ProbeSet 11739960_a_at) / Fold change (ACY-1035/veh), VPS36 (ProbeSet 11739960_a_at) / RFU SYPL1 (11715823_x_at) / Fold change /veh SYPL1 (11715823_x_at) / RFU IGFBP7 (11715501_s_at) / Fold change /veh IGFBP7 (11715501_s_at) / RFU REEP3 (11722064_at) / Fold change /veh REEP3 (11722064_at) / RFU IGLL1 (11728026_x_at) / Fold change /veh IGLL1 (11728026_x_at): dose or concentration left out as unconfirmed.

Consider 1 molecule from paper PMC5218480 (PLoS ONE, 2017).

Take `Nc1ccc(-c2cccs2)cc1NC(=O)c1ccc2c(c1)cc(C1CC1)n2CCN1CCOCC1` [ACY-1035]: the “RFU ARHGAP8 /// PRR5-ARHGAP8 (11727945_x_at)” value was 101.90 RFU.
